Results: patent US20040242456A1, “Herbicidal n-alkysulfonamino derivatives” (priority 2001, published 2004)

What was measured:
ABUTIL [1] = assay: Pre-emergence herbicidal action; format: in vivo, Abutilon; set-up: key: 1=total damage; 9=no action; details: 250 g of active ingredient per ha, sprayed immediately after sowing, evaluated after 3 weeks; scale of nine ratings, 1 to 4 good to very good action
Procedure: (§1) Monocotyledonous and dicotyledonous test plants are sown in standard soil in plastic pots. Immediately after sowing, the test compounds, in the form of an aqueous suspension (prepared from a 25% wettable powder (Example F3, b) according to WO 97/34485) or in the form of an emulsion (prepared from a 25% emulsifiable concentrate (Example F1, c)), are applied by spraying, in an amount corresponding to 250 g of active ingredient per ha (500 litres of water per ha). The test plants are then grown in a greenhouse under optimum conditions. After a test duration of 3 weeks, the test is evaluated in accordance with a scale of nine ratings (1=total damage, 9=no action). Ratings of from 1 to 4 (especially from 1 to 3) indicate good to very good herbicidal action.

AMARAN [2] = assay: Pre-emergence herbicidal action; format: in vivo, Amaranthus; set-up: key: 1=total damage; 9=no action; details: 250 g of active ingredient per ha, sprayed immediately after sowing, evaluated after 3 weeks; scale of nine ratings, 1 to 4 good to very good action
Procedure: as §1

DIGITA [3] = assay: Pre-emergence herbicidal action; format: in vivo, Digitaria; set-up: key: 1=total damage; 9=no action; details: 250 g of active ingredient per ha, sprayed immediately after sowing, evaluated after 3 weeks; scale of nine ratings, 1 to 4 good to very good action
Procedure: as §1

PANICU [4] = assay: Pre-emergence herbicidal action; format: in vivo; set-up: key: 1=total damage; 9=no action; details: 250 g of active ingredient per ha, sprayed immediately after sowing, evaluated after 3 weeks; scale of nine ratings, 1 to 4 good to very good action
Procedure: as §1

CHENOP [5] = assay: Pre-emergence herbicidal action; format: in vivo, Chenopodium; set-up: key: 1=total damage; 9=no action; details: 250 g of active ingredient per ha, sprayed immediately after sowing, evaluated after 3 weeks; scale of nine ratings, 1 to 4 good to very good action
Procedure: as §1

ECHINO [6] = assay: Pre-emergence herbicidal action; format: in vivo, Echinochloa; set-up: key: 1=total damage; 9=no action; details: 250 g of active ingredient per ha, sprayed immediately after sowing, evaluated after 3 weeks; scale of nine ratings, 1 to 4 good to very good action
Procedure: as §1

SETARI [7] = assay: Pre-emergence herbicidal action; format: in vivo, Setaria; set-up: key: 1=total damage; 9=no action; details: 250 g of active ingredient per ha, sprayed immediately after sowing, evaluated after 3 weeks; scale of nine ratings, 1 to 4 good to very good action
Procedure: as §1

STELLA = assay: Pre-emergence herbicidal action; format: in vivo, Stellaria; set-up: key: 1=total damage; 9=no action; details: 250 g of active ingredient per ha, sprayed immediately after sowing, evaluated after 3 weeks; scale of nine ratings, 1 to 4 good to very good action
Procedure: as §1

SETARI [8] = assay: Post-emergence herbicidal action; format: in vivo, Setaria; details: 250 g of active ingredient per ha, sprayed at 4- to 6-leaf stage, evaluated after about 18 days; scale of nine ratings, 1 to 4 good to very good action
Procedure: (§2) Monocotyledonous and dicotyledonous test plants are grown in standard soil in plastic pots in a greenhouse and, at the 4- to 6-leaf stage, are sprayed with an aqueous suspension of the test compounds of formula I, prepared from a 25% wettable powder (Example F3, b) according to WO 97/34485 or with an emulsion of the test compounds of formula I, prepared from a 25% emulsifiable concentrate (Example F1, c) according to WO 97/34485, in an amount corresponding to 250 g of active ingredient per ha (500 litres of water per ha). The test plants are then grown on in the greenhouse under optimum conditions. After a test duration of about 18 days, the test is evaluated in accordance with a scale of nine ratings (1=total damage, 9=no action). Ratings of from 1 to 4 (especially from 1 to 3) indicate good to very good herbicidal action.

AMARAN [9] = assay: Post-emergence herbicidal action; format: in vivo, Amaranthus; set-up: key: 1=total damage; 9=no action; details: 250 g of active ingredient per ha, sprayed at 4- to 6-leaf stage, evaluated after about 18 days; scale of nine ratings, 1 to 4 good to very good action
Procedure: as §2

DIGITA [10] = assay: Post-emergence herbicidal action; format: in vivo, Digitaria; set-up: key: 1=total damage; 9=no action; details: 250 g of active ingredient per ha, sprayed at 4- to 6-leaf stage, evaluated after about 18 days; scale of nine ratings, 1 to 4 good to very good action
Procedure: as §2

EUPHOR = assay: Post-emergence herbicidal action; format: in vivo; details: 250 g of active ingredient per ha, sprayed at 4- to 6-leaf stage, evaluated after about 18 days; scale of nine ratings, 1 to 4 good to very good action
Procedure: as §2

PANICU [11] = assay: Post-emergence herbicidal action; format: in vivo; set-up: key: 1=total damage; 9=no action; details: 250 g of active ingredient per ha, sprayed at 4- to 6-leaf stage, evaluated after about 18 days; scale of nine ratings, 1 to 4 good to very good action
Procedure: as §2

ECHINO [12] = assay: Post-emergence herbicidal action; format: in vivo, Echinochloa; details: 250 g of active ingredient per ha, sprayed at 4- to 6-leaf stage, evaluated after about 18 days; scale of nine ratings, 1 to 4 good to very good action
Procedure: as §2

ABUTIL [13] = assay: Post-emergence herbicidal action; format: in vivo, Abutilon; set-up: key: 1=total damage; 9=no action; details: 250 g of active ingredient per ha, sprayed at 4- to 6-leaf stage, evaluated after about 18 days; scale of nine ratings, 1 to 4 good to very good action
Procedure: as §2

CHENOP [14] = assay: Post-emergence herbicidal action; format: in vivo, Chenopodium; set-up: key: 1=total damage; 9=no action; details: 250 g of active ingredient per ha, sprayed at 4- to 6-leaf stage, evaluated after about 18 days; scale of nine ratings, 1 to 4 good to very good action
Procedure: as §2

COCCN(C1=C(C(=O)c2ccc(C(F)(F)F)nc2C)C(=O)C2CCC1C2)S(=O)(=O)c1ccccc1 (centres unmarked) [Example 1.027]
9: Pre-emergence action CHENOP, rating (CHENOP [5]) | Pre-emergence action STELLA, rating (STELLA)
3: Pre-emergence action ABUTIL, rating (ABUTIL [1]) | Pre-emergence action ECHINO, rating (ECHINO [6])
2: Pre-emergence action AMARAN, rating (AMARAN [2]) | Pre-emergence action DIGITA, rating (DIGITA [3]) | Pre-emergence action PANICU, rating (PANICU [4]) | Pre-emergence action SETARI, rating (SETARI [7])

COCCN(C1=C(C(=O)c2ccc(C(F)(F)F)nc2C)C(=O)C(C)(C)C(=O)C1(C)C)S(C)(=O)=O [Example 1.001]
4: Pre-emergence action STELLA, rating (STELLA)
1: Pre-emergence action ABUTIL, rating (ABUTIL [1]) | Post-emergence action DIGITA, rating (DIGITA [10]) | Pre-emergence action AMARAN, rating (AMARAN [2]) | Post-emergence action PANICU, rating (PANICU [11]) | Post-emergence action ABUTIL, rating (ABUTIL [13]) | Pre-emergence action DIGITA, rating (DIGITA [3]) | Pre-emergence action PANICU, rating (PANICU [4]) | Pre-emergence action CHENOP, rating (CHENOP [5]) | Pre-emergence action ECHINO, rating (ECHINO [6]) | Post-emergence action CHENOP, rating (CHENOP [14])
2: Post-emergence action SETARI, rating (SETARI [8]) | Post-emergence action AMARAN, rating (AMARAN [9]) | Post-emergence action EUPHOR, rating (EUPHOR) | Post-emergence action ECHINO, rating (ECHINO [12]) | Pre-emergence action SETARI, rating (SETARI [7])

CCS(=O)(=O)N(CCOC)C1=C(C(=O)c2ccc(C(F)(F)F)nc2C)C(=O)C2CCC1C2 (centres unmarked) [Example 1.013, Ethanesulfonic acid(2-methoxy-ethyl)-[3-(2-methyl-6-trifluoromethyl-pyridine-3-carbonyl)-4-oxo-bicyclo[3.2.1]oct-2-en-2-yl]-amide]
2: Post-emergence action SETARI, rating (SETARI [8]) | Post-emergence action DIGITA, rating (DIGITA [10]) | Post-emergence action EUPHOR, rating (EUPHOR) | Post-emergence action ECHINO, rating (ECHINO [12]) | Post-emergence action ABUTIL, rating (ABUTIL [13])
1: Post-emergence action AMARAN, rating (AMARAN [9]) | Pre-emergence action ABUTIL, rating (ABUTIL [1]) | Pre-emergence action AMARAN, rating (AMARAN [2]) | Post-emergence action PANICU, rating (PANICU [11]) | Pre-emergence action DIGITA, rating (DIGITA [3]) | Pre-emergence action PANICU, rating (PANICU [4]) | Pre-emergence action CHENOP, rating (CHENOP [5]) | Pre-emergence action ECHINO, rating (ECHINO [6]) | Pre-emergence action SETARI, rating (SETARI [7]) | Post-emergence action CHENOP, rating (CHENOP [14]) | Pre-emergence action STELLA, rating (STELLA)

CCS(=O)(=O)N(Cc1ccccc1)C1=C(C(=O)c2ccc(C(F)(F)F)nc2C)C(=O)C2CCC1C2 (centres unmarked) [Example 1.065]
1: Pre-emergence action ABUTIL, rating (ABUTIL [1]) | Pre-emergence action DIGITA, rating (DIGITA [3]) | Pre-emergence action PANICU, rating (PANICU [4]) | Pre-emergence action ECHINO, rating (ECHINO [6]) | Pre-emergence action SETARI, rating (SETARI [7]) | Post-emergence action CHENOP, rating (CHENOP [14]) | Pre-emergence action STELLA, rating (STELLA)
5: Post-emergence action SETARI, rating (SETARI [8])
3: Post-emergence action EUPHOR, rating (EUPHOR) | Post-emergence action ECHINO, rating (ECHINO [12])
2: Post-emergence action AMARAN, rating (AMARAN [9]) | Post-emergence action DIGITA, rating (DIGITA [10]) | Pre-emergence action AMARAN, rating (AMARAN [2]) | Post-emergence action PANICU, rating (PANICU [11]) | Post-emergence action ABUTIL, rating (ABUTIL [13]) | Pre-emergence action CHENOP, rating (CHENOP [5])
